Results as given in patent EP4624463A1, “SPIRO DERIVATIVE AS KIF18A INHIBITOR” (Insilico Medicine IP Limited, priority 2022, dated 2024).

The molecules below were run against T1, KIF18A (Homo sapiens, UniProt Q8NI77) (assay: KIF18A enzyme inhibition activity assay (ADP-Glo)). Details: ADP-Glo kit, porcine tubulin, ATP; 10 concentration points, 3-fold serial dilution; 25°C.
T1 sequence (Q8NI77 1-898): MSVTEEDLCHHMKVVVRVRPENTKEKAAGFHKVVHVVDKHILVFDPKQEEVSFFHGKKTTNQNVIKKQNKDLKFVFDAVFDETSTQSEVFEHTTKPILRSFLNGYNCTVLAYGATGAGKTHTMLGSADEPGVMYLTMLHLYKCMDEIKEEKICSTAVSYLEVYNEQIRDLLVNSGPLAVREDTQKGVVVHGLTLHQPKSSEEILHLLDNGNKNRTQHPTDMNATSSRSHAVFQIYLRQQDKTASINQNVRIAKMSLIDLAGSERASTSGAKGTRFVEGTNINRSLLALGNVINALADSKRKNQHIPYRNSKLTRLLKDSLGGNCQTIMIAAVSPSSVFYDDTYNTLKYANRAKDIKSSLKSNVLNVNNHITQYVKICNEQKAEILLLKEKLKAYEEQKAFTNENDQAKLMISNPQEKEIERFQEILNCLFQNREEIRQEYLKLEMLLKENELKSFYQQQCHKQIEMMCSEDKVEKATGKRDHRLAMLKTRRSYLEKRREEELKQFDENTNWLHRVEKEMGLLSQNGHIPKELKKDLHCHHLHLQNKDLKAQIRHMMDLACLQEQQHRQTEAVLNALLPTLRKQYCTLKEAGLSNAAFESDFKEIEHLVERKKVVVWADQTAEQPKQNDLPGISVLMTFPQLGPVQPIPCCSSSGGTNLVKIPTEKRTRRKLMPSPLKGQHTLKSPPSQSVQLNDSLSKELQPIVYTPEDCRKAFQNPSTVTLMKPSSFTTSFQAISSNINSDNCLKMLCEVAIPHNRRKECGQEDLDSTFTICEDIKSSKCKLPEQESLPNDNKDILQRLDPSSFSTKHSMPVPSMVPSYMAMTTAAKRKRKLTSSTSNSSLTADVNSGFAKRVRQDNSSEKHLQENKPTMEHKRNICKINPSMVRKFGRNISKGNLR
Assay type: biochemical
Experimental: Embodiment 6: Biological example: KIF18A enzyme inhibition activity assay
2) Steps: • 2.1 Preparation of enzyme protein buffer solution • 2.2 Activity screening • a) 40 µL of compound solution was added to a 384-well dilution plate; • b) A 3-fold serial dilution was performed to obtain 10 concentration points; • c) 0.1 µL of compound solution was transferred into a 384-well plate; • d) 5 µL of enzyme reaction solution was added and centrifuged at 1,000 RPM for 1 minute; • e) The reaction took place at 25°C for 15 minutes; • f) 5 µL of ATP reaction solution was added; • g) The reaction took place at 25°C for 60 minutes; • h) 10 µL of ADP-Glo reagent was added and centrifuged at 1,000 RPM for 1 minute; • i) The reaction took place at 25°C for 60 minutes; • j) 20 µL of detection reagent was added and centrifuged at 1,000 RPM for 1 minute; • k) The reaction took place at 25°C for 60 minutes; • l) The Envision 2104 plate reader was used to measure […]. 3) Data analysis • 3.1 Fluorescence signal values were obtained from the readings of each well • 3.2 Calculation of IC50 Concentration-response curve fitting and IC50 determination were performed using GraphPad Prism software with a four-parameter logistic regression model.

Row | SMILES | IC50 [nM]
1 | O=C1c2ccc(NS(=O)(=O)CCO)cc2C2(CCCCC2)CN1c1cccc(N2CCOCC2)n1 [EX01, 2-Hydroxy-N-{2'-[6-(1,4-oxazinane-4-yl)pyridin-2-yl]-1'-oxo-2',3'-dihydro-1'H-spiro[cyclohexane-1,4'-isoquinoline]-6'-yl} ethanesulfonamide] | 2030
2 | Cc1cc(N2CC3(CCC4(CC4)CC3)c3cc(NS(=O)(=O)CCO)ccc3C2=O)nc(N2CCC(F)(F)CC2)n1 [EX02, N-{2-[2-(4,4-Difluorohexahydropyridin-1-yl)-6-methylpyrimidin-4-yl]-1-oxo-2,3-dihydro-1H-spiro[isoquinoline-4,6'-spiro[2.5]octane]-6-yl}-2-hydroxyethanesulfonamide] | 38
3 | O=C1c2ccc(NS(=O)(=O)CCO)cc2C2(CCC3(CC3)CC2)CN1c1ccc(=O)n(C2CC(F)(F)C2)n1 [EX05, N-{2-[1-(3,3-Difluorocyclobutyl)-6-oxo-1,2-diazacyclohexanecarbonate-3-yl]-1-oxo-2,3-dihydro-1H-spiro[isoquinoline-4,6'-spiro[2.5]octane]-6-yl}-2-hydroxyethanesulfonamide] | 8.2
4 | Cc1cc(N2CC3(CCC(C)(C)CC3)c3cc(NS(=O)(=O)CCO)ccc3C2=O)nc(N2CCC(F)(F)CC2)n1 [EX03, N-{2'-[2-(4,4-difluorohexahydropyridin-1-yl)-6-methylpyrimidin-4-yl]-1,1-dimethyl-1'-oxo-2',3'-dihydro-1'H-spiro[cyclohexane-4,4'-isoquinoline]-6'-yl}-2-hydroxyethanesulfonamide] | 44
5 | C[C@@H]1CN(c2cccc(N3CC4(CCC5(CC5)CC4)c4cc(NS(=O)(=O)CCO)ccc4C3=O)n2)CCO1 [EX04, 2-Hydroxy-N-(2-{6-[(2R)-2-methyl-1,4-oxazinane-4-yl]pyridin-2-yl}-1-oxo-2,3-dihydro-1H-spiro[isoquinoline-4,6'-spiro[2.5]octane]-6-yl)ethanesulfonamide] | 107
